Assays:
[1] = tested on: primary trigeminal neuronal cultures; assay: entrance of calcium cation stimulated by capsaicin in neuronal cultures; type: cell-based
[2] = 52° C. hot plate nociception test; type: in vivo; conditions: mice, 10 mg/Kg intraperitoneal, carrier 11.5±2 s
Experimental: A 52° C. hot plate test was used as a nociception test, where the latency time to paw withdrawal or jump of the animal was monitored. The compounds were intraperitoneally administered to mice at a dose of 10 mg/Kg. The behavioral test was carried out at 30, 60 and 120 minutes after the administration of the compounds.

[3] = acute inflammatory pain model caused by subcutaneous capsaicin (paw lick latency); type: in vivo; conditions: mice, intraperitoneal; for behavioral latency time (paw lick): carrier 20±5 s
Experimental: The analgesic activity of the products was determined by assessing their effect in the acute inflammatory pain model caused by subcutaneous administration of the capsaicin irritant. Administration of this vanilloid causes a neurogenic inflammation in animals with acute painful burning sensation resulting in thermal and mechanical hyperalgesia. The behavioral latency time to paw lick after intraperitoneal administration of the compounds to mice at different doses was monitored.

[4] = tested on: afferent nerve fibers from the knee of the rat; assay: nervous activity caused by capsaicin in afferent nerve fibers from the knee

N=C(N)NCCC[C@H](N)C(=O)N(CCc1ccc(Cl)cc1Cl)CC(=O)N(CCc1ccc(Cl)cc1Cl)CC(N)=O [Example 1]
inhibition of the entrance of calcium cation stimulated by capsaicin [1]: 85% | latency to the first response (paw withdrawal or jump) ([2]; 30 minutes after): 20 ± 4 s | latency to the first response (paw withdrawal or jump) ([2]; 60 minutes after): 18 ± 3 s | latency to the first response (paw withdrawal or jump) ([2]; 120 minutes after): 18 ± 4 s | behavioral latency time (paw lick) ([3]; 2 mg/Kg): 90 ± 10 s | behavioral latency time (paw lick) ([3]; 5 mg/Kg): 190 ± 50 s | behavioral latency time (paw lick) ([3]; 10 mg/Kg): 250 ± 40 s | duration of the behavioral response ([3]; 2 to 10 mg/Kg): decreased as the dose of the compound increased | block of the nervous activity caused by capsaicin [4]: 80%
